Data as given in EP3826985B1, “DENDRIMER-TYPE COMPOUNDS, METHODS FOR PRODUCING SAME, AND USES THEREOF” (Université De Reims Champagne-Ardenne, priority 2018, dated 2020).

Experiment: Metal cation trapping by dendrimer (dialysis, ICP-AES)
Procedure: Une solution aqueuse contenant l'ion métallique (6 mL, Cf = 4.10^-5 mol/L) a été mélangée avec une solution aqueuse de II.6 (6 mL; 2.10^-6 mol/L); la solution résultante a été agitée pendant 2h à une vitesse d'agitation de 300 tours/min à température ambiante.
Une dialyse d'une heure a été réalisée en utilisant une membrane d'ester de cellulose (Cutoff 1000) dans de l'eau distillée (1L). Pour déterminer la quantité d'ion métallique extraite par le dendrimère, 10 mL de l'eau de dialyse ont été prélevés pour l'analyse ICP-AES (Spectrométrie à plasma à couplage inductif - Spectrométrie d'Emission Atomique).
L'analyse de l'eau de dialyse par ICP-AES (Thermo Scientific, iCAP 6000 Séries) a permis d'obtenir la quantité de métal résiduelle. La quantité d'ions (M^n+) présente dans la phase dendrimère a été obtenue par différence entre la quantité initiale et la quantité résiduelle.
Le pourcentage de rétention (% R) a été calculé selon l'expression suivante : %R = (n(Maq(initial))−n(Maq(final)))/(n Maq(initial)) × 100 [formula] avec n (Maq(initial)) et n (Maq(final)), les nombres de moles d'ions métalliques respectivement dans la solution de départ et dans l'eau de dialyse après extraction.

SMILES: OCC(O)COCC(COCC(COCC(COCC(COCC(COCC(O)CO)OCC(O)CO)OCC(COCC(O)CO)OCC(O)CO)OCC(COCC(COCC(O)CO)OCC(O)CO)OCC(COCC(O)CO)OCC(O)CO)OCC(COCC(O)CO)OCC(O)CO)OCC(O)CO (stereo not shown) [II.6]
- % R (Ag^+, Rapport n (Maq (initial)) / n (II.6) = 104,5): 88%
- % R (Cd^2+, Rapport n (Maq (initial)) / n (II.6) = 73): 95,5%
- % R (Ce^3+, Rapport n (Maq (initial)) / n (II.6) = 93): >95%
- % R (Cu^2+, Rapport n (Maq (initial)) / n (II.6) = 63,6): 75%
- % R (Hg^2+, Rapport n (Maq (initial)) / n (II.6) = 140): 85%
- % R (Ni^2+, Rapport n (Maq (initial)) / n (II.6) = 85,5): 89%
- % R (Pb^2+, Rapport n (Maq (initial)) / n (II.6) = 77): 99%
